Reference: paper PMC4673829 (Nature Communications, 2015)
pKd: −log10 of the molar value. Like-named read-outs stand apart in the source and are kept apart here.

Assays:
JARID1A PHD3 domain = molecular target: T1, JARID1A PHD3 domain (Homo sapiens, UniProt P29375); experiment: ITC binding to JARID1A PHD3 domain
T1 construct: made in house; host or cells: Escherichia coli Rosetta BL21 DE3 pLysS
T1 sequence (P29375 1607-1661 limits assumed): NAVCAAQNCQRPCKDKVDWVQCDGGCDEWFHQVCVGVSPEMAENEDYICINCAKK
Excerpt: (§1) We use isothermal titration calorimetry (ITC) to obtain full thermodynamic descriptions for binding of H3K4me3, H3C4me3 and H3G4 peptides to five representative reader proteins that specifically recognize H3K4me3 (the PHD zinc fingers of JARID1A, BPTF, TAF3 and the tudor domains of the Royal family of SGF29 and JMJD2A) (Table 1 and Fig. 1b,c)[19][20][21][22][23]. The five reader pockets are different in the aromatic cage composition and architecture, which allows us to examine the effect of individual constitution of the aromatic cage on binding differences.
(§2) Reader proteins were prepared and purified following the previously reported procedure. Briefly, the reader domains of BPTF, JMJD2A, JARID1A, TAF3 and SGF29 were expressed in Escherichia coli Rosetta BL21 DE3 pLysS hosts, using Terrific Broth medium. The bacteria were cultured to OD600 ∼0.6 at 37 °C after which they were induced with 0.5 mM isopropyl-b-D-thiogalactoside overnight at 16 °C. Proteins were purified using Ni-NTA beads for 6xHis-tagged proteins or glutathione sepharose beads for GST tagged proteins, respectively. After purification, the 6xHis tag was cleaved from JMJD2A and SGF29 using TEV-protease and the GST tag was cleaved from TAF3 using thrombin. Protein were purified by size-exclusion chromatography using a Superdex 75 column (GE Healthcare). SGF29 was eluted in 25 mM Tris, 50 mM NaCl, 1 mM dithiothreitol at pH 7.5; JMJD2A and TAF3 were eluted in 50 mM Tris at pH 7.5; BPTF and JARID1A were eluted in 50 mM Tris, 20 mM NaCl at pH 7.5. All proteins were made filter sterile and stored at 4 °C until further use.
(§3) Concentrations of histone peptides were measured by ultraviolet spectroscopy at 205 nm, following the previously reported method. All histone peptides were titrated to the same batch of reader proteins. […] Heats of dilution for histone peptides were determined in control experiments, and were subtracted from the titration binding data before curve fitting. […] For each reader–histone system, 5–7 independent ITC experiments were carried out. […]

TAF3 PHD domain = molecular target: T2, TAF3 PHD domain (Homo sapiens, UniProt Q5VWG9); experiment: ITC binding to TAF3 PHD domain; details: 5–7 independent experiments
T2 sequence (Q5VWG9 857-924): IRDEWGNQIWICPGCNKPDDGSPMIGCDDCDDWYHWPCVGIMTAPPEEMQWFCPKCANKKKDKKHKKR
Excerpt: as §1, §2, §3

BPTF PHD zinc finger = molecular target: T3, BPTF PHD zinc finger (Homo sapiens, UniProt Q12830); experiment: ITC binding to BPTF PHD zinc finger; details: ITC (Auto-iTC200), one set of sites; 350–600 μM 10-mer peptide into 25–40 μM protein (eluted in 50 mM Tris, 20 mM NaCl, pH 7.5); 5–7 independent experiments; stoichiometry n=0.95–1.05
T3 construct: the PHD zinc fingers of JARID1A, BPTF, TAF3 and the tudor domains of the Royal family of SGF29 and JMJD2A; made in house; host or cells: Escherichia coli Rosetta BL21 DE3 pLysS
Excerpt: as §1
(§4) Reader proteins were prepared and purified following the previously reported procedure. Briefly, the reader domains of BPTF, JMJD2A, JARID1A, TAF3 and SGF29 were expressed in Escherichia coli Rosetta BL21 DE3 pLysS hosts, using Terrific Broth medium. The bacteria were cultured to OD600 ∼0.6 at 37 °C after which they were induced with 0.5 mM isopropyl-b-D-thiogalactoside overnight at 16 °C. […]
as §3

[1] = molecular target: T4, SGF29 tandem tudor domain (Homo sapiens, UniProt Q96ES7); experiment: ITC binding to SGF29 tandem tudor domain; details: ITC (Auto-iTC200), one set of sites; 350–600 μM 10-mer peptide into 25–40 μM protein (eluted in 25 mM Tris, 50 mM NaCl, 1 mM dithiothreitol, pH 7.5); 5–7 independent experiments; stoichiometry n=0.95–1.05
T4 construct: 6xHis (cleaved yes); made in house; host or cells: Escherichia coli Rosetta BL21 DE3 pLysS
T4 sequence (Q96ES7 115-293): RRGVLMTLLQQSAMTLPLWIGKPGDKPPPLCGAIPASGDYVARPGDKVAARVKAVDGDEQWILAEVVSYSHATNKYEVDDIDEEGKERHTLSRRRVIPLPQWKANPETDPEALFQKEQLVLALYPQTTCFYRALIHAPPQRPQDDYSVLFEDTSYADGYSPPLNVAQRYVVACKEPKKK
Excerpt: as §1, §4, §3

JMJD2A tudor domain = molecular target: T5, JMJD2A tudor domain (Homo sapiens, UniProt O75164); experiment: ITC binding to JMJD2A tudor domain; details: 5–7 independent experiments
T5 construct: the PHD zinc fingers of JARID1A, BPTF, TAF3 and the tudor domains of the Royal family of SGF29 and JMJD2A; 6xHis (cleaved yes); made in house; host or cells: Escherichia coli Rosetta BL21 DE3 pLysS
T5 sequence (O75164 897-1011 limits assumed): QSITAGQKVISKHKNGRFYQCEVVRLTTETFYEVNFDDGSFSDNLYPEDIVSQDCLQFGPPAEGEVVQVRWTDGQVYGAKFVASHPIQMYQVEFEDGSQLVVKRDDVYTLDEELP
Excerpt: as §1, §4, §3

[2] = ITC (Auto-iTC200), one set of sites, 350–600 μM 10-mer peptide into 25–40 μM protein (eluted in 50 mM Tris, 20 mM NaCl, pH 7.5), 5–7 independent experiments, stoichiometry n=0.95–1.05, read-out: Kd
[3] = ITC (Auto-iTC200), one set of sites, 350–600 μM 10-mer peptide into 25–40 μM protein (eluted in 50 mM Tris, pH 7.5), stoichiometry n=0.95–1.05, read-out: Kd

C[C@H](N)C(=O)N[C@@H](CCCNC(=N)N)C(=O)N[C@H](C(=O)N[C@@H](CCCCC(C)(C)C)C(=O)N[C@@H](CCC(N)=O)C(=O)N[C@H](C(=O)N[C@@H](C)C(=O)N[C@@H](CCCNC(=N)N)C(=O)N[C@@H](CCCCN)C(=O)N[C@@H](CO)C(=O)O)[C@@H](C)O)[C@@H](C)O [H3C4me3]
pKd (JARID1A PHD3 domain; [2]): 6.47 | pKd (TAF3 PHD domain; [3]): 6.10 | pKd (BPTF PHD zinc finger): 6.12 | pKd [1]: 5.85 | pKd (JMJD2A tudor domain; ITC, 3 mM H3C4me3 into 200 μM JMJD2A): 4.80

C[C@H](N)C(=O)N[C@@H](CCCNC(=N)N)C(=O)N[C@H](C(=O)NCC(=O)N[C@@H](CCC(N)=O)C(=O)N[C@H](C(=O)N[C@@H](C)C(=O)N[C@@H](CCCNC(=N)N)C(=O)N[C@@H](CCCCN)C(=O)N[C@@H](CO)C(=O)O)[C@@H](C)O)[C@@H](C)O [H3G4]
pKd (JARID1A PHD3 domain): 4.06 | pKd (TAF3 PHD domain; ITC, 3 mM H3G4 into 200 μM TAF3): 4.44

C[C@H](N)C(=O)N[C@@H](CCCNC(=N)N)C(=O)N[C@H](C(=O)N[C@@H](CCCC[N+](C)(C)C)C(=O)N[C@@H](CCC(N)=O)C(=O)N[C@H](C(=O)N[C@@H](C)C(=O)N[C@@H](CCCNC(=N)N)C(=O)N[C@@H](CCCCN)C(=O)N[C@@H](CO)C(=O)O)[C@@H](C)O)[C@@H](C)O [H3K4me3]
pKd (JARID1A PHD3 domain; [2]): 7.03 | pKd (TAF3 PHD domain; [3]): 7.62 | pKd (BPTF PHD zinc finger): 6.31 | pKd [1]: 5.77 | pKd (JMJD2A tudor domain; ITC (Auto-iTC200), one set of sites, 350–600 μM 10-mer peptide into 25–40 μM protein (eluted in 50 mM Tris, pH 7.5), stoichiometry n=0.95–1.05): 6.03
